# Assay results published in ChEMBL document CHEMBL1909294, “Translating clinical findings into knowledge in drug safety evaluation--drug induced liver injury prediction system (DILIps)” (PLoS Comput Biol, 2011).
# Columns and labels:
# [1] = system: Hepatotoxicity;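 on HepSE Combined Scores: combined hepatic side effect score as listed in the training data of the Drug Induced Liver Injury Prediction System (DILIps)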;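 on HepSE bilirubinemia: bilirubinemia hepatic side effect score drawn from the DILIps training data, a prediction system for drug-induced liver injury; call rule not given here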;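 on HepSE hepatomegaly: hepatic side effect score for hepatomegaly, taken from the training set of the DILIps drug-induced liver injury prediction system; call rule not given here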;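 on HepSE jaundice: Jaundice-related hepatic side-effect score drawn from the training data of the DILIps (drug-induced liver injury prediction system); call rule not given here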;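 on HepSE liver fatty: hepatic side effect score for fatty liver, taken from the DILIps training set for predicting drug-induced liver injury; call rule not given here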;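 on HepSE liver function tests abnormal: hepatic side effect score taken from the DILIps (drug-induced liver injury prediction system) training data, here covering abnormal liver function test findings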
# [2] = system: Hepatotoxicity; remark: listed apart in the source;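 on HepSE Combined Scores: combined hepatic side effect score as listed in the training data of the Drug Induced Liver Injury Prediction System (DILIps)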;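 on HepSE bilirubinemia: bilirubinemia hepatic side effect score drawn from the DILIps training data, a prediction system for drug-induced liver injury; call rule not given here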;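 on HepSE hepatomegaly: hepatic side effect score for hepatomegaly, taken from the training set of the DILIps drug-induced liver injury prediction system; call rule not given here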;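 on HepSE jaundice: Jaundice-related hepatic side-effect score drawn from the training data of the DILIps (drug-induced liver injury prediction system); call rule not given here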;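 on HepSE liver fatty: hepatic side effect score for fatty liver, taken from the DILIps training set for predicting drug-induced liver injury; call rule not given here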;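 on HepSE liver function tests abnormal: hepatic side effect score taken from the DILIps (drug-induced liver injury prediction system) training data, here covering abnormal liver function test findings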
# [3] = system: Hepatotoxicity; remark: listed apart in the source;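 on HepSE Combined Scores: combined hepatic side effect score as listed in the training data of the Drug Induced Liver Injury Prediction System (DILIps)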;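 on HepSE bilirubinemia: bilirubinemia hepatic side effect score drawn from the DILIps training data, a prediction system for drug-induced liver injury; call rule not given here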;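 on HepSE hepatomegaly: hepatic side effect score for hepatomegaly, taken from the training set of the DILIps drug-induced liver injury prediction system; call rule not given here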;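 on HepSE jaundice: Jaundice-related hepatic side-effect score drawn from the training data of the DILIps (drug-induced liver injury prediction system); call rule not given here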;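 on HepSE liver fatty: hepatic side effect score for fatty liver, taken from the DILIps training set for predicting drug-induced liver injury; call rule not given here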;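 on HepSE liver function tests abnormal: hepatic side effect score taken from the DILIps (drug-induced liver injury prediction system) training data, here covering abnormal liver function test findings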
# [4] = system: Hepatotoxicity; remark: listed apart in the source;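 on HepSE Combined Scores: combined hepatic side effect score as listed in the training data of the Drug Induced Liver Injury Prediction System (DILIps)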;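 on HepSE hepatomegaly: hepatic side effect score for hepatomegaly, taken from the training set of the DILIps drug-induced liver injury prediction system; call rule not given here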;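 on HepSE jaundice: Jaundice-related hepatic side-effect score drawn from the training data of the DILIps (drug-induced liver injury prediction system); call rule not given here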;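 on HepSE liver fatty: hepatic side effect score for fatty liver, taken from the DILIps training set for predicting drug-induced liver injury; call rule not given here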;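 on HepSE liver function tests abnormal: hepatic side effect score taken from the DILIps (drug-induced liver injury prediction system) training data, here covering abnormal liver function test findings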
# [5] = system: Hepatotoxicity; remark: listed apart in the source
# [6] = system: Hepatotoxicity; remark: listed apart in the source
# [7] = system: Hepatotoxicity; remark: listed apart in the source
# [8] = system: Hepatotoxicity; remark: listed apart in the source
# [9] = system: Hepatotoxicity; remark: listed apart in the source
# [10] = system: Hepatotoxicity; remark: listed apart in the source
# [11] = system: Hepatotoxicity; remark: listed apart in the source
# [12] = system: Hepatotoxicity; remark: listed apart in the source
# [13] = system: Hepatotoxicity; remark: listed apart in the source
# [14] = system: Hepatotoxicity; remark: listed apart in the source
Structure (SMILES),HepSE_liver fatty [1],HepSE_hepatomegaly [2],HepSE_Combined Scores [3],HepSE_jaundice [4],HepSE_liver function tests abnormal [5],HepSE_bilirubinemia [6],HepSE_cholelithiasis [7],HepSE_liver disease [8],HepSE_hepatitis [9],HepSE_cholecystitis [10],HepSE_elevated liver function tests [11],HepSE_hepatic necrosis [12],HepSE_cirrhosis [13],HepSE_hepatic failure [14],further results
N#Cc1cc(NC(=O)C(=O)O)c(Cl)c(NC(=O)C(=O)O)c1 [LODOXAMIDE],0,0,0,0,0,0,0,0,0,0,0,0,0,0,–
O=NN(CCCl)C(=O)NC1CCCCC1 [LOMUSTINE],0,0,0,0,0,0,0,0,0,0,0,0,0,0,–
CN(C)C(=O)C(CCN1CCC(O)(c2ccc(Cl)cc2)CC1)(c1ccccc1)c1ccccc1 [LOPERAMIDE],0,0,0,0,0,0,0,0,0,0,0,0,0,0,–
N[C@@H](C(=O)N[C@@H]1C(=O)N2C(C(=O)O)=C(Cl)CC[C@H]12)c1ccccc1 [LORACARBEF ANHYDROUS],0,0,1,1,0,0,0,0,0,0,0,0,0,0,–
O=C1Nc2ccc(Cl)cc2C(c2ccccc2Cl)=NC1O (configuration not stated) [LORAZEPAM],0,0,2,1,1,0,0,0,0,0,0,0,0,0,–
CCCCc1nc(Cl)c(CO)n1Cc1ccc(-c2ccccc2-c2nn[nH]n2)cc1 [LOSARTAN],0,0,2,1,0,0,0,0,1,0,0,0,0,0,–
CN1CCN(C2=Nc3ccccc3Oc3ccc(Cl)cc32)CC1 [LOXAPINE],0,0,2,1,0,0,0,0,1,0,0,0,0,0,–
CC(=O)O.NCc1ccc(S(N)(=O)=O)cc1 [MAFENIDE ACETATE],0,0,0,0,0,0,0,0,0,0,0,0,0,0,–
CCOC(=O)CC(SP(=S)(OC)OC)C(=O)OCC (configuration not stated) [MALATHION],0,0,0,0,0,0,0,0,0,0,0,0,0,0,–
OC[C@@H](O)[C@@H](O)[C@H](O)[C@H](O)CO [MANNITOL],0,0,0,0,0,0,0,0,0,0,0,0,0,0,–
CNCCCC12CCC(c3ccccc31)c1ccccc12 [MAPROTILINE],–,–,–,–,–,–,–,–,–,–,–,–,–,–,HepSE_liver fatty ([1]; Liver): 0; HepSE_hepatomegaly ([2]; Liver): 0; HepSE_Combined Scores ([3]; Liver): 1; HepSE_jaundice ([4]; Liver): 1; HepSE_liver function tests abnormal ([5]; Liver): 0; HepSE_bilirubinemia ([6]; Liver): 0; HepSE_cholelithiasis ([7]; Liver): 0; HepSE_liver disease ([8]; Liver): 0; HepSE_hepatitis ([9]; Liver): 0; HepSE_cholecystitis ([10]; Liver): 0; HepSE_elevated liver function tests ([11]; Liver): 0; HepSE_hepatic necrosis ([12]; Liver): 0; HepSE_cirrhosis ([13]; Liver): 0; HepSE_hepatic failure ([14]; Liver): 0
COC(=O)Nc1nc2ccc(C(=O)c3ccccc3)cc2[nH]1 [MEBENDAZOLE],0,0,1,0,0,0,0,0,1,0,0,0,0,0,–
CNC1(C)C2CCC(C2)C1(C)C (configuration not stated) [MECAMYLAMINE],0,0,0,0,0,0,0,0,0,0,0,0,0,0,–
